Results as given in patent US9938259B2, “Therapeutic compositions and related methods of use” (Agios Pharmaceuticals, Inc., priority 2009, dated 2018).

Target: PKM2 (Homo sapiens, UniProt P14618)
Assay: PKM2 Assay
Format: biochemical
Conditions: activation of PKM2 enzyme, LDH-coupled, absorbance at 340 nm; read-out: PKM2_AC50
Protocol: • PKM2 stock enzyme solution was diluted in Reaction Buffer • 2 μL of compound was added into each well first, and then 180 μL of the Reaction Mix was added. • Reaction mixture with compound (without ADP) were incubated for 30 minutes at 4° C. • Plates were re-equilibrated to room temperature prior to adding 20 μL ADP to initiate the reaction. • Reaction progress was measured as changes in absorbance at 340 nm wavelength at room temperature (25° C.) • Reaction Mix: PKM2 (50 ng/well), ADP (0.7 mM), PEP (0.15 mM), NADH (180 μM), LDH (2 units) in Reaction Buffer • Reaction Buffer: 100 mM KCl, 50 mM Tris pH 7.5, 5 mM MgCl2, 1 mM DTT, 0.03% BSA.

Sequence of PKM2 (P14618 whole entry): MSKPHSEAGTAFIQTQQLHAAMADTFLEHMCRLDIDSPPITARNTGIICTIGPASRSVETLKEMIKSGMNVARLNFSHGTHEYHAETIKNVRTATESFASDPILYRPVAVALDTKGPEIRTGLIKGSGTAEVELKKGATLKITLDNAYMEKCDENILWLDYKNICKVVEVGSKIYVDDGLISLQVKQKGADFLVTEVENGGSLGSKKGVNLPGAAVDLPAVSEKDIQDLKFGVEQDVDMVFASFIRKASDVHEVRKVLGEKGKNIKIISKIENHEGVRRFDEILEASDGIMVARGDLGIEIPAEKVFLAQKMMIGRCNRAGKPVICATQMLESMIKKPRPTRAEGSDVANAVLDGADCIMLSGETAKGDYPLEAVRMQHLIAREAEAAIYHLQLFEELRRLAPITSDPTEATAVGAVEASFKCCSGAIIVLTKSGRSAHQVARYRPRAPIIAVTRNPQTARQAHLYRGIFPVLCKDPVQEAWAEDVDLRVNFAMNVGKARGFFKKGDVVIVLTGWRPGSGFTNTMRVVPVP

AC50 [nM]	Structure (SMILES)
> 10000	CN(C)S(=O)(=O)c1cccn1-c1ncc(C(F)(F)F)cc1Cl
> 10000	COc1ccc(NS(=O)(=O)c2cnn(-c3ccc(C(F)(F)F)cn3)c2)cc1
> 10000	Cc1cc(C)cc(S(=O)(=O)Nc2ccnn2-c2ncc(C(F)(F)F)cc2Cl)c1
500 to 1000	O=S(=O)(Nc1cc(F)cc(F)c1)c1cccn1-c1ncccc1Cl [drawing 63]
1000 to 10000	O=S(=O)(Nc1cc(Cl)cc(Cl)c1)c1cncn1-c1ncc(C(F)(F)F)cc1Cl
100 to 500	O=S(=O)(Nc1cccc2ccccc12)c1cncn1-c1ncc(C(F)(F)F)cc1Cl
1000 to 10000	O=S(=O)(Nc1ccc(Cl)cc1)c1cncn1-c1ccnc(Cl)n1
100 to 500	CCc1cccc(NS(=O)(=O)c2cncn2-c2ncc(C(F)(F)F)cc2Cl)c1
100 to 500	COc1cc(NS(=O)(=O)c2cccn2-c2ncc(C(F)(F)F)cc2Cl)cc(OC)c1
1000 to 10000	O=S(=O)(Nc1cc(F)c(F)c(F)c1)c1cccn1-c1ccnc(Cl)n1
> 10000	COCCNS(=O)(=O)c1cccn1-c1ncc(C(F)(F)F)cc1Cl
500 to 1000	O=S(=O)(Nc1ccc2c(c1)OCO2)c1cncn1-c1ccnc(Cl)n1
1000 to 10000	O=S(=O)(Nc1cccc(Cl)c1)c1cncn1-c1cccs1
1000 to 10000	O=S(=O)(Nc1ccccc1C(F)(F)F)c1cccn1-c1ncc(C(F)(F)F)cc1Cl
500 to 1000	O=S(=O)(Nc1ccc(Cl)cc1)c1cccn1-c1nccc(Cl)n1
100 to 500	Cc1cc(NS(=O)(=O)c2cncn2-c2nccs2)ccc1F
1000 to 10000	O=S(=O)(Nc1ccc(Oc2ccc(C(F)(F)F)cn2)c(Cl)c1)c1cccn1-c1ncc(C(F)(F)F)cc1Cl
1000 to 10000	N#Cc1cccc(NS(=O)(=O)c2cncn2-c2ncc(C(F)(F)F)cc2Cl)c1
1000 to 10000	O=S(=O)(Nc1ccc(F)c(Cl)c1)c1cncn1-c1cccs1
1000 to 10000	COc1ccc(NS(=O)(=O)c2cncn2-c2ncc(C(F)(F)F)cc2Cl)cc1
1000 to 10000	O=S(=O)(Nc1cc(F)cc(F)c1)c1cncn1-c1nccc(Cl)n1
1000 to 10000	O=S(=O)(Nc1ccc(F)c(Cl)c1)c1ccnn1-c1nccs1
1000 to 10000	O=S(=O)(Nc1ccc2ncccc2c1)c1cncn1-c1ncc(C(F)(F)F)cc1Cl
1000 to 10000	CCCNS(=O)(=O)c1cccn1-c1ncc(C(F)(F)F)cc1Cl
> 10000	O=S(=O)(Nc1cc(C(F)(F)F)cc(C(F)(F)F)c1)c1cncn1-c1ncc(C(F)(F)F)cc1Cl
< 100	O=S(=O)(Nc1ccc2c(c1)OCO2)c1cccn1-c1ccnc(Cl)n1

AC50 [nM]	Structure (SMILES)
500 to 1000	CCc1cccc(NS(=O)(=O)c2cccn2-c2ncc(C(F)(F)F)cc2Cl)c1
< 100	Cc1cc(NS(=O)(=O)c2cccn2-c2ccnc(Cl)n2)ccc1F
100 to 500	O=S(=O)(Nc1ccc(F)c(Cl)c1)c1cncn1-c1ncccn1 [drawing 117]
1000 to 10000	COC(=O)c1cccc(NS(=O)(=O)c2cccn2-c2ncc(C(F)(F)F)cc2Cl)c1
1000 to 10000	O=S(=O)(Nc1ccc(Cl)cc1)c1cnn(-c2ccc(C(F)(F)F)cn2)c1
< 100	Cc1cc(NS(=O)(=O)c2ccnn2-c2ncc(C(F)(F)F)cc2Cl)ccc1F
500 to 1000	O=S(=O)(Nc1ccc(Cl)cc1)c1cccn1-c1ccnc(Cl)n1
1000 to 10000	O=S(=O)(Nc1ccc2c(c1)OCCO2)c1cncn1-c1ncc(C(F)(F)F)cc1Cl
100 to 500	COc1ccc(NS(=O)(=O)c2cccn2-c2ncc(C(F)(F)F)cc2Cl)cc1
1000 to 10000	O=S(=O)(Nc1ccc(Cl)cc1)c1cncn1-c1ncccn1
500 to 1000	COc1cc(NS(=O)(=O)c2cncn2-c2ncc(C(F)(F)F)cc2Cl)cc(OC)c1
1000 to 10000	COc1ccc(NS(=O)(=O)c2cncn2-c2ccc(C(F)(F)F)cn2)cc1
100 to 500	O=S(=O)(Nc1ccc(F)c(Cl)c1)c1cccn1-c1nccc(Cl)n1
500 to 1000	O=S(=O)(Nc1ccc(F)c(Cl)c1)c1cncn1-c1nccs1
> 10000	O=S(=O)(NCc1ccc(Cl)cc1)c1cccn1-c1ncc(C(F)(F)F)cc1Cl
1000 to 10000	O=S(=O)(NCc1cccnc1)c1cccn1-c1ncc(C(F)(F)F)cc1Cl
1000 to 10000	O=S(=O)(Nc1cccc2ncccc12)c1cncn1-c1ncc(C(F)(F)F)cc1Cl
> 10000	O=S(=O)(Nc1ccc(F)c(Cl)c1)c1ccnn1-c1cccs1
500 to 1000	O=S(=O)(Nc1cc(F)cc(F)c1)c1cccn1-c1ccnc(Cl)n1
500 to 1000	O=S(=O)(Oc1ccc(Cl)cc1)c1cccn1-c1ncc(C(F)(F)F)cc1Cl
< 100	Cc1cc(NS(=O)(=O)c2cccn2-c2ncccc2Cl)ccc1F [drawing 101]
1000 to 10000	O=S(=O)(Nc1cccc(-c2ccc(C(F)(F)F)cn2)c1)c1cccn1-c1ncc(C(F)(F)F)cc1Cl
1000 to 10000	O=S(=O)(Nc1cc(F)cc(F)c1)c1cncn1-c1ncccn1
500 to 1000	O=S(=O)(Nc1ccc2c(c1)OCO2)c1cncn1-c1ncccn1
1000 to 10000	O=S(=O)(Nc1ccc(F)cc1)c1cncn1-c1ccnc(Cl)n1
500 to 1000	O=S(=O)(Nc1cccc(C(F)(F)F)c1)c1cccn1-c1ccnc(Cl)n1

AC50 [nM]	Structure (SMILES)
1000 to 10000	COc1cc(NS(=O)(=O)c2cncn2-c2ncc(C(F)(F)F)cc2Cl)cc(C(F)(F)F)c1 [drawing 122]
1000 to 10000	O=S(=O)(Nc1cc(Cl)cc(Cl)c1)c1cccn1-c1ncc(C(F)(F)F)cc1Cl
1000 to 10000	O=S(=O)(Nc1ccc(Cl)cc1)c1cccn1-c1ncccn1
500 to 1000	O=S(=O)(Nc1cccc(Cl)c1)c1cncn1-c1nccs1
< 100	Cc1cc(NS(=O)(=O)c2cncn2-c2ncccn2)ccc1F [drawing 132]
1000 to 10000	O=S(=O)(Nc1ccc(F)cc1)c1cccn1-c1ncccc1Cl
500 to 1000	O=S(=O)(Nc1cc(F)cc(F)c1)c1cncn1-c1ncc(C(F)(F)F)cc1Cl
1000 to 10000	COc1cc(NS(=O)(=O)c2cncn2-c2ncc(C(F)(F)F)cc2Cl)cc(C(F)(F)F)c1 [drawing 149]
100 to 500	O=S(=O)(Nc1cccc(Cl)c1)c1ccnn1-c1ncc(C(F)(F)F)cc1Cl
< 100	O=S(=O)(Nc1cc(F)cc(F)c1)c1cccn1-c1ncccc1Cl [drawing 162]
100 to 500	O=S(=O)(Nc1cccc(C(F)(F)F)c1)c1cccn1-c1ncc(C(F)(F)F)cc1Cl
1000 to 10000	O=S(=O)(Nc1ccc(Cl)cc1)c1cncn1-c1nccc(Cl)n1
100 to 500	O=S(=O)(Nc1ccc(F)c(Cl)c1)c1cncn1-c1cnccn1
1000 to 10000	O=S(=O)(Nc1ccc(F)c(Cl)c1)c1cncn1-c1nccc(Cl)n1
100 to 500	Cc1cc(NS(=O)(=O)c2ccnn2-c2cnccn2)ccc1F
100 to 500	Cc1cccc(NS(=O)(=O)c2cncn2-c2cnccn2)c1
1000 to 10000	O=S(=O)(Nc1ccc(F)cc1)c1cncn1-c1nccc(Cl)n1
100 to 500	O=S(=O)(Nc1ccc(Cl)cc1)c1cccn1-c1ncccc1Cl [drawing 154]
1000 to 10000	O=S(=O)(Nc1cc(F)c(F)c(F)c1)c1cncn1-c1ncc(C(F)(F)F)cc1Cl
100 to 500	Cc1cc(C)cc(NS(=O)(=O)c2cncn2-c2ccc(C(F)(F)F)cn2)c1
100 to 500	O=S(=O)(Nc1ccc2c(c1)OCO2)c1cncn1-c1cnccn1
> 10000	O=S(=O)(Nc1ccc2c(c1)OCCO2)c1cncn1-c1ccc(C(F)(F)F)cn1
1000 to 10000	O=S(=O)(Nc1cccc(Cl)c1)c1ccnn1-c1nccs1
100 to 500	O=S(=O)(Nc1cc(F)c(F)c(F)c1)c1cccn1-c1ncc(C(F)(F)F)cc1Cl
